Measurements from US6087366A (The Trustees of Columbia University in the City of New York, priority 1996, dated 2000).
Like-named read-outs stand apart in the source and are kept apart here.

How the values were obtained:
[1] = system: rat sympathetic neurons; assay: survival of rat sympathetic neurons after NGF withdrawal; type: cell-based; conditions: for survival of NGF-deprived sympathetic neurons: flavopiridol 1 μM, iso-olomoucine 200 μM
Method: The cells were plated in 0.5 ml of medium per well in collagen-coated 24-well dishes at a density of approximately 0.5 ganglia per well. […] To eliminate non-neuronal cells, a mixture of uridine and 5-fluorodeoxyuridine (10 μM each) were added to the cultures on the following day. […] The appropriate drug and/or NGF or anti-mouse NGF antibody (1:200 dilution) was added in a final volume of 0.5 ml of the same medium described above. At appropriate times, the numbers of viable, phase bright neurons were determined by strip counting as previously described (33). All survival data are expressed as relative to the original number of cells counted for each well. All experimental points were performed in triplicate and are reported as mean+/-SEM,

[2] = system: naive PC12 cells; assay: [3H]-thymidine incorporation by naive PC12 cells; type: cell-based, rat; conditions: compared with olomoucine
Method: Naive PC12 cells were plated in collagen-coated 24-well dishes at a density of 4×10^5 per well in RPMI 1640 medium containing 3 μM insulin (Sigma) or 10% horse serum and 5% fetal calf serum. […] The cells were pretreated with the appropriate drug for a period of 16 hr prior to the addition of 1 μCi per well of [^3 H]-thymidine (NEN Products, Dupont). The cells were exposed to thymidine for 1-2 hour and then washed three times with cold PBS. Each well was extracted with 1 ml of 10% TCA at 4° C. for 1 hr, and the insoluble material was solubilized overnight at room temperature with 0.3 ml 1N NaOH. After neutralization with an equal volume of 1 N HCl, the solution was quantified by scintillation counting. The level of background counts was determined by treating cells with 10 μM aphidicolin. All experimental points were performed in triplicate. All data are presented relative to untreated control samples as mean+/-SEM.

[3] = system: cdk1; conditions: read-out: IC50, inhibition of cdk1 activity; cited from earlier work
[4] = system: neuronally-differentiated PC12 cells; assay: survival of neuronally-differentiated PC12 cells after NGF withdrawal; type: cell-based, rat; conditions: for EC (maximal): Rattus norvegicus
Method: (§1) For survival experiments, naive or neuronally-differentiated PC12 cells were washed extensively in serum-, NGF-free medium as previously described (6,24) and replated onto collagen-coated 24-well tissue culture dishes at a density of approximately 2×10^5 cells per well. The final volume of medium in each well, including all drugs was 1 ml. To allow time for blockade of DNA synthesis, naive PC12 cells were, in some cases, pretreated with drug for 16 hr prior to serum withdrawal. NGF-treated neuronally-differentiated cells were not pretreated with drug prior to serum deprivation. At appropriate times of culture under the desired conditions, cells were lysed and the numbers of viable cells were determined as previously described (24). The number of intact nuclei was determined by counting in a hemacytometer. All counts were performed in triplicate, and survival data are expressed as a percentage of cells plated on day 0+/-SEM.

[5] = system: c-Jun kinase (JNK); assay: c-Jun kinase activation in NGF-deprived neuronally-differentiated PC12 cells; type: cell-based, rat; conditions: flavopiridol 1 μM, olomoucine 200 μM
Method: (§2) c-Jun kinase (JNK) was affinity purified from PC12 cell extracts with GST-c-Jun (a gift from Dr. Michael Karin, University of California, San Diego) bound to GSH-agarose beads (Sigma) by methods previously described (34). c-Jun kinase activity was determined by an in vitro solid-phase kinase assay as described previously (34). Activated c-Jun kinase was isolated from PC12 cells treated with 0.5 mM sodium arsenite for 30 min. […] GST-c-Jun was resolved on a 8.5% SDS gel and incorporation of ^32 PO4 was quantified by autoradiography and densitometry.

[6] = system: sympathetic neurons; assay: rate of protein synthesis ([3H]-leucine incorporation) in sympathetic neurons; type: cell-based; conditions: Rattus norvegicus, Sympathetic neuron
Method: (§3) Neuronally-differentiated PC12 cells and sympathetic neurons were plated on 24-well dishes as described above. After the cultures were pretreated with the appropriate drug for 1 hr, 5 μCi [^3 H]-leucine was added per well and the cells were allowed to incorporate the isotope for 10 hr. The cultures were washed and prepared for scintillation counting as described above for thymidine incorporation. Background levels of radioactivity was determined by treating wells with 5 μg/ml cycloheximide. All experimental points were performed in triplicate and the data are presented relative to untreated control samples as mean+/-SEM.

[7] = system: c-Jun kinase (JNK); assay: in vitro solid-phase kinase assay, phosphorylation of GST-c-Jun by activated JNK; type: biochemical, rat; conditions: for IC50: read-out: IC50, inhibition of GST-c-Jun phosphorylation by activated JNK in vitro
Method: as §2

[8] = system: naive PC12 cells; assay: survival of naive PC12 cells with or without serum; type: cell-based, rat; conditions: 16 hrs pretreatment, serum withdrawal
Method: as §1

[9] = survival of naive PC12 cells with or without serum; type: cell-based, rat; conditions: rat, naive pc12 cells; serum-containing medium, day 3; read-out: death of naive PC12 cells in the presence of serum
Method: as §1

[10] = survival of neuronally-differentiated PC12 cells after NGF withdrawal; type: cell-based, rat; conditions: rat; post-mitotic neuronally-differentiated PC12 cells, with NGF, day 3; read-out: death in the presence of NGF
Method: as §1

[11] = system: neuronally-differentiated PC12 cells; assay: rate of protein synthesis ([3H]-leucine incorporation) in neuronally-differentiated PC12 cells; type: cell-based, rat
Method: as §3

[12] = system: GST-ERK1; conditions: read-out: IC50, inhibition of GST-ERK1 activity in vitro; cited from earlier work
[13] = neuronally-differentiated PC12 cells

SMILES | survival of NGF-deprived sympathetic neurons [1] | protection from cell death after NGF withdrawal [4, 13] | level of JNK activation after NGF deprivation [5] | IC50 [7] [µM] | survival of serum-deprived naive PC12 cells [8] | cytotoxicity at 72 h [9] [%] | cytotoxicity at 72 h [10] [%] | also measured
Cn1cnc2nc(NCCO)nc(NCc3ccccc3)c21 [iso-olomoucine] | ineffective | far less effective than olomoucine |  |  |  |  |  | inhibition of thymidine incorporation [2]: far less effective than olomoucine; IC50 [3]: > 500 µM
COc1cccc(-c2cc(=O)c3ccccc3o2)c1N [PD 098059] |  |  |  |  |  |  |  | NGF-stimulated neurite regeneration ([4]; 20-100 μM, PC12 cells passaged into serum-free medium with NGF): effectively suppressed NGF-stimulated neurite regeneration; effect on NGF-promoted survival ([4]; 20-100 μM, naive or neuronally-differentiated PC12 cells, serum-free medium with or without NGF): neither blocked nor mimicked the capacity of NGF to promote survival
CN1CC[C@H](c2c(O)cc(O)c3c(=O)cc(-c4ccccc4Cl)oc23)[C@H](O)C1 [flavopiridol, (-) cis-5,7-dihydroxy-2-(2-chlorophenyl) -8[4-(3-hydroxy-1-methyl) -piperidinyl]-4H-benzopyran-4-one] | full survival for at least four days | good maintenance of survival even 5 days after NGF withdrawal | did not decrease the level of JNK activation | > 12 | died somewhat more quickly than control cells | 75 | ~20 | inhibition at 1 µM [6]: ~25%; effect on in vitro phosphorylation of GST-c-Jun ([7]; 12 μM): no effect; effect on in vitro phosphorylation of GST-c-Jun ([7]; 50 μM): significantly inhibited phosphorylation; EC (maximal) ([4]; PC-12, neuronally-differentiated PC12 cells, serum-free medium, read-out: concentration of maximal protection from death induced by NGF withdrawal): 1 µM; inhibition at 1 µM ([11]; Rattus norvegicus, PC-12): ~25%
Cn1cnc2c(NCc3ccccc3)nc(NCCO)nc21 [olomoucine, 2-(2-hydroxyethylamino) -6-benzylamino-9-methylpurine] |  |  | did not decrease the level of JNK activation | ~100 | died at about the same rate as control cells | 75 | ~20 | viability at 200 µM ([1]; Rattus norvegicus, Sympathetic neuron, 168 h, read-out: neurons still viable): ~75%; IC50 [12]: 30 µM; inhibition at 200 µM [6]: ~30%; EC (maximal) ([4]; PC-12, read-out: concentration of maximal protection from death induced by NGF withdrawal): 200 µM; effect on protein synthesis ([11]; PC12 cell cultures, 200 μM): no effect
